Data from patent US20230248665A1, “COMPOSITION COMPRISING DIMETHYLCHALCONE DERIVATIVE FOR PREVENTION OR TREATMENT OF METABOLIC DISEASE” (SEOUL NATIONAL UNIVERSITY R & DB FOUNDATION, priority 2020, published 2023).

How the values were obtained:
Type in all cases: cell-based
[1] = tested on: human kidney proximal tubule epithelial cell (HK-2) cell line; assay: Antioxidant effect, intracellular reactive oxygen species (DCF-DA) in HK-2 kidney cells after H2O2; conditions: 1 µM for 18 hours, then 500 µM H2O2 for 6 hours, FIG. 6
Method: First, the antioxidant effect was checked using kidney cells. More specifically, a human kidney proximal tubule epithelial cell (HK-2) cell line was treated with 1 µM DMC derivative and cultured for 18 hours. Then, 500 µM H2O2 was added to the culture medium and the culture medium was incubated for 6 hours. Thereafter, the amount of intracellular reactive oxygen species (iROS) was measured using dichlorohydro-fluorescein diacetate (DCF-DA).

[2] = tested on: vascular endothelial cells (HUVECs) and THP-1 (human monocyte) immune cells; assay: Binding of THP-1 immune cells to TNFα-treated vascular endothelial cells (HUVECs); conditions: 10 µM with 10 ng/mL TNFα, 24 hours, then THP-1 for 1 hour; FIG. 5
Method: In the early stages of progression of vascular diseases such as arteriosclerosis, adhesion materials are expressed in vascular endothelial cells due to various environmental factors, thereby increasing the binding of immune cells. Therefore, in order to check whether the DMC derivatives of Example 1 affect the binding between vascular endothelial cells and immune cells, vascular endothelial cells (HUVECs) were treated with 10 ng/mL TNFα and 10 µM DMC derivative and cultured for 24 hours. Then, THP-1 (human monocyte) immune cells labeled with a fluorescent protein were added to the culture solution, and the cells were additionally cultured for 1 hour. After the culture was completed, unbound immune cells were removed using a phosphate buffer solution, and then the degree of binding of immune cells to vascular endothelial cells was determined by measuring the intensity of fluorescence.

[3] = tested on: AMPK; assay: AMPK activity, western blotting of phosphorylated AMPK in C2C12 myotubes; conditions: 10 µM, 24 hours, FIG. 2
Excerpt: AMP-activated protein kinase (AMPK) is a member of serine/threonine kinases, and is an enzyme known as an energy sensor which senses the intracellular energy state. Moreover, the activation of AMPK is known to show the effect of increasing glucose transport and promoting fatty acid oxidation in skeletal muscle, and to […] the synthesis of cholesterol and triglycerides, decrease lipogenesis, and increase fatty acid oxidation, and ketogenesis, and the like in the liver. Further, the activation of AMPK is known to reduce adipogenesis in adipose tissue and increase insulin secretion in pancreatic beta cells, thereby being able to be applied to the treatment of various metabolic diseases. Therefore, western blotting was performed in order to confirm the effect of the DMC derivatives of Example 1 on AMPK activity. More specifically, the C2C12 myoblasts were primarily cultured in DMEM supplemented with 10% fetal bovine serum, and then cultured in DMEM supplemented with 2% horse serum for 5 days to differentiate into myotubes. Then, the differentiated myotubes were treated with 10 µM DMC derivative and cultured for 24 hours, and then cells were collected, and disrupted using an ultrasonic disperser to obtain proteins. Next, western blotting was performed using a pAMPK antibody (Cell Signaling Technology) and an AMPK antibody (Cell Signaling Technology) to measure the amount of phosphorylated AMPK. 1 mM AICAR was used as a positive control, and 20 µg of protein was used for each sample in western blotting.

[4] = tested on: rat aortic smooth muscle cells; assay: PDGF-induced migration of vascular smooth muscle cells; conditions: 1 µM with 10 ng/mL PDGF; FIG. 4
Method: Proliferation and migration of vascular smooth muscle cells are known to be essential steps in the progression of vascular diseases such as restenosis and arteriosclerosis. Therefore, in order to confirm the effect of the DMC derivatives of Example 1 on the migration of rat aortic smooth muscle cells, smooth muscle cells were treated with 10 ng/mL platelet-derived growth factor (PDGF) and 1 µM DMC derivative and cultured. Then, the degree of cell migration was measured.

| Compound | amount of intracellular reactive oxygen species (ROS) [1] | binding of immune cells to vascular endothelial cells (fluorescence) [2] | activity of AMPK (phosphorylated AMPK) [3] | migration of vascular smooth muscle cells [4] |
| --- | --- | --- | --- | --- |
| COc1c(C)c(O)c(C)c(O)c1C(=O)/C=C/c1ccc(C)cc1 [Chemical Formula 3, 1-(2′,4′-dihydroxy-6′-methoxy-3′,5′-dimethylphenyl)-3-(4-tolyl)-2-propen-1-one] | effectively reduced ROS | similarly or more effectively suppressed the binding of immune cells than Rosi | increased the activity of AMPK similarly to or more effectively than the positive controls | similarly or more effectively suppressed cell migration by PDGF than AICAR and Rosi, which were used as positive controls, and DMC |
| COCOc1c(C)c(O)c(C(=O)/C=C/c2cc(OC)ccc2OC)c(OC)c1C [Chemical Formula 15, 1-(2′-hydroxy-4′-(methoxymethoxy)-6′-methoxy-3′,5′-dimethylphenyl)-3-(2,5-dimethoxyphenyl)-2-propen-1-one] | effectively reduced ROS | similarly or more effectively suppressed the binding of immune cells than Rosi | increased the activity of AMPK similarly to or more effectively than the positive controls | similarly or more effectively suppressed cell migration by PDGF than AICAR and Rosi, which were used as positive controls, and DMC |
| COCOc1c(C)c(O)c(C(=O)/C=C/c2ccc(F)cc2)c(OC)c1C [Chemical Formula 24, 1-(2′-hydroxy-4′-(methoxymethoxy)-6′-methoxy-3′,5′-dimethylphenyl)-3-(4-fluorophenyl)-2-propen-1-one] | effectively reduced ROS | similarly or more effectively suppressed the binding of immune cells than Rosi | increased the activity of AMPK similarly to or more effectively than the positive controls | similarly or more effectively suppressed cell migration by PDGF than AICAR and Rosi, which were used as positive controls, and DMC |
| COc1c(C)c(OC)c(C(=O)/C=C/c2ccc(N(C)C)cc2)c(OC)c1C [Chemical Formula 23, 1-(3′,5′-dimethyl-2′,4′,6′-trimethoxyphenyl)-3-(4-(N,N-dimethylamino)phenyl)-2-propen-1-one] | effectively reduced ROS | similarly or more effectively suppressed the binding of immune cells than Rosi | increased the activity of AMPK similarly to or more effectively than the positive controls | similarly or more effectively suppressed cell migration by PDGF than AICAR and Rosi, which were used as positive controls, and DMC |
